Numbers after ± are expanded uncertainties.
Conditions: Liquid

Cc1ccc(C)c(C)c1 [1,2,4-trimethylbenzene]
viscosity [mPa·s]
Conditions | 293.15 K | 313.15 K | 333.15 K | 353.15 K
100 kPa, Vibrating wire viscometry | 0.8929 ± 0.015 | 0.6989 ± 0.012 | 0.5596 ± 0.01 | 0.4527 ± 0.0085
1000 kPa, Vibrating wire viscometry | 0.9065 ± 0.015 | 0.7096 ± 0.012 | 0.5646 ± 0.01 | 0.4566 ± 0.0086
5000 kPa, Falling or rolling sphere viscometry | 0.913 ± 0.045 | 0.7254 ± 0.036 | 0.5819 ± 0.029 | 0.4715 ± 0.023
5000 kPa, Vibrating wire viscometry | 0.9417 ± 0.016 | 0.7359 ± 0.013 | 0.5885 ± 0.01 | 0.4711 ± 0.0088
10000 kPa, Falling or rolling sphere viscometry | 0.9568 ± 0.047 | 0.7531 ± 0.037 | 0.6058 ± 0.03 | 0.492 ± 0.024
10000 kPa, Vibrating wire viscometry | 0.9769 ± 0.016 | 0.7606 ± 0.013 | 0.6066 ± 0.011 | 0.4886 ± 0.0091
20000 kPa, Falling or rolling sphere viscometry | 1.042 ± 0.052 | 0.8131 ± 0.04 | 0.6529 ± 0.032 | 0.532 ± 0.026
20000 kPa, Vibrating wire viscometry | 1.061 ± 0.018 | 0.8203 ± 0.014 | 0.6476 ± 0.011 | 0.5283 ± 0.0096
30000 kPa, Falling or rolling sphere viscometry | 1.137 ± 0.056 | 0.8704 ± 0.043 | 0.7014 ± 0.035 | 0.571 ± 0.028
30000 kPa, Vibrating wire viscometry | 1.148 ± 0.019 | 0.8894 ± 0.015 | 0.6942 ± 0.012 | 0.5626 ± 0.01
40000 kPa, Falling or rolling sphere viscometry | 1.224 ± 0.061 | 0.9344 ± 0.046 | 0.7504 ± 0.037 | 0.6125 ± 0.03
40000 kPa, Vibrating wire viscometry | 1.233 ± 0.02 | 0.9528 ± 0.016 | 0.7426 ± 0.013 | 0.5993 ± 0.011
50000 kPa, Vibrating wire viscometry | 1.336 ± 0.022 | 1.026 ± 0.017 | 0.7922 ± 0.013 | 0.6375 ± 0.011
60000 kPa, Falling or rolling sphere viscometry | – | 1.07 ± 0.053 | 0.8467 ± 0.042 | 0.6967 ± 0.034
60000 kPa, Vibrating wire viscometry | 1.435 ± 0.023 | 1.1 ± 0.018 | 0.8456 ± 0.014 | 0.6768 ± 0.012
70000 kPa, Vibrating wire viscometry | 1.566 ± 0.025 | 1.171 ± 0.019 | 0.9004 ± 0.015 | 0.7177 ± 0.012
80000 kPa, Falling or rolling sphere viscometry | – | 1.25 ± 0.062 | 0.9594 ± 0.048 | 0.7819 ± 0.039
80000 kPa, Vibrating wire viscometry | 1.693 ± 0.027 | 1.249 ± 0.02 | 0.9675 ± 0.016 | 0.7606 ± 0.013
100000 kPa, Falling or rolling sphere viscometry | – | – | 1.086 ± 0.054 | 0.8778 ± 0.043
100000 kPa, Vibrating wire viscometry | 1.952 ± 0.031 | 1.415 ± 0.023 | 1.094 ± 0.018 | 0.8518 ± 0.014
120000 kPa, Falling or rolling sphere viscometry | – | – | 1.228 ± 0.061 | 0.9727 ± 0.048
120000 kPa, Vibrating wire viscometry | 2.288 ± 0.036 | 1.599 ± 0.026 | 1.221 ± 0.02 | 0.9515 ± 0.016
140000 kPa, Vibrating wire viscometry | 2.668 ± 0.042 | 1.824 ± 0.029 | 1.343 ± 0.022 | 1.065 ± 0.018

CC(C)CC(C)(C)C [2,2,4-trimethylpentane]
viscosity [mPa·s]
Conditions | 293.15 K | 298.15 K | 313.15 K | 323.15 K | 333.15 K | 348.15 K | 353.15 K
100 kPa, Vibrating wire viscometry | 0.5064 ± 0.0094 | 0.4746 ± 0.0089 | 0.4035 ± 0.0079 | 0.3645 ± 0.0073 | 0.3265 ± 0.0068 | 0.2829 ± 0.0063 | 0.2738 ± 0.0061
1000 kPa, Vibrating wire viscometry | 0.51 ± 0.0094 | 0.4819 ± 0.009 | 0.4114 ± 0.008 | 0.3694 ± 0.0074 | 0.3296 ± 0.0069 | 0.2863 ± 0.0063 | 0.2748 ± 0.0061
5000 kPa, Falling or rolling sphere viscometry | 0.5412 ± 0.027 | – | 0.4251 ± 0.021 | – | 0.3468 ± 0.017 | – | –
5000 kPa, Vibrating wire viscometry | 0.5399 ± 0.0099 | 0.509 ± 0.0094 | 0.4353 ± 0.0083 | 0.3915 ± 0.0077 | 0.3515 ± 0.0072 | 0.306 ± 0.0066 | 0.2923 ± 0.0064
10000 kPa, Falling or rolling sphere viscometry | 0.5744 ± 0.029 | – | 0.4517 ± 0.022 | – | 0.37 ± 0.018 | – | –
10000 kPa, Vibrating wire viscometry | 0.5733 ± 0.01 | 0.5388 ± 0.0098 | 0.4633 ± 0.0087 | 0.4157 ± 0.0081 | 0.3754 ± 0.0075 | 0.3274 ± 0.0068 | 0.3175 ± 0.0067
20000 kPa, Falling or rolling sphere viscometry | 0.6401 ± 0.032 | – | 0.5129 ± 0.025 | – | 0.4153 ± 0.021 | – | –
20000 kPa, Vibrating wire viscometry | 0.6366 ± 0.011 | 0.6027 ± 0.011 | 0.5177 ± 0.0095 | 0.464 ± 0.0088 | 0.4216 ± 0.0081 | 0.3692 ± 0.0074 | 0.357 ± 0.0072
30000 kPa, Falling or rolling sphere viscometry | 0.7047 ± 0.035 | – | 0.5662 ± 0.028 | – | 0.459 ± 0.023 | – | –
30000 kPa, Vibrating wire viscometry | 0.7059 ± 0.012 | 0.6672 ± 0.012 | 0.5775 ± 0.01 | 0.5146 ± 0.0095 | 0.4705 ± 0.0088 | 0.4131 ± 0.008 | 0.3966 ± 0.0078
40000 kPa, Falling or rolling sphere viscometry | 0.7738 ± 0.038 | – | 0.6128 ± 0.03 | – | 0.5083 ± 0.025 | – | –
40000 kPa, Vibrating wire viscometry | 0.7817 ± 0.013 | 0.7394 ± 0.013 | 0.6351 ± 0.011 | 0.5714 ± 0.01 | 0.5232 ± 0.0096 | 0.4565 ± 0.0086 | 0.4379 ± 0.0084
50000 kPa, Vibrating wire viscometry | 0.8608 ± 0.015 | 0.8154 ± 0.014 | 0.6902 ± 0.012 | 0.6255 ± 0.011 | 0.579 ± 0.01 | 0.5022 ± 0.0093 | 0.4853 ± 0.0091
60000 kPa, Falling or rolling sphere viscometry | 0.9262 ± 0.046 | – | 0.7307 ± 0.036 | – | 0.6083 ± 0.03 | – | –
60000 kPa, Vibrating wire viscometry | 0.9567 ± 0.016 | 0.8956 ± 0.015 | 0.7509 ± 0.013 | 0.6832 ± 0.012 | 0.6246 ± 0.011 | 0.5476 ± 0.01 | 0.5294 ± 0.0097
70000 kPa, Vibrating wire viscometry | 1.042 ± 0.017 | 0.9815 ± 0.017 | 0.8173 ± 0.014 | 0.742 ± 0.013 | 0.6779 ± 0.012 | 0.6049 ± 0.011 | 0.5738 ± 0.01
80000 kPa, Falling or rolling sphere viscometry | 1.115 ± 0.055 | – | 0.8553 ± 0.042 | – | 0.6981 ± 0.035 | – | –
80000 kPa, Vibrating wire viscometry | 1.127 ± 0.019 | 1.07 ± 0.018 | 0.8861 ± 0.015 | 0.7969 ± 0.014 | 0.728 ± 0.013 | 0.6507 ± 0.011 | 0.6288 ± 0.011
100000 kPa, Falling or rolling sphere viscometry | 1.298 ± 0.064 | – | 1.024 ± 0.051 | – | 0.8101 ± 0.04 | – | –
100000 kPa, Vibrating wire viscometry | 1.316 ± 0.022 | 1.234 ± 0.02 | 1.045 ± 0.017 | 0.9249 ± 0.016 | 0.8361 ± 0.014 | 0.7538 ± 0.013 | 0.7176 ± 0.013
120000 kPa, Falling or rolling sphere viscometry | – | – | 1.185 ± 0.059 | – | 0.9406 ± 0.047 | – | –
120000 kPa, Vibrating wire viscometry | 1.518 ± 0.025 | 1.435 ± 0.024 | 1.195 ± 0.02 | 1.068 ± 0.018 | 0.9606 ± 0.016 | 0.864 ± 0.015 | 0.8245 ± 0.014
140000 kPa, Vibrating wire viscometry | 1.739 ± 0.028 | 1.648 ± 0.027 | 1.363 ± 0.022 | 1.21 ± 0.02 | 1.095 ± 0.018 | 0.977 ± 0.016 | 0.9332 ± 0.016

CCCCCCCCCCCC [dodecane]
viscosity [mPa·s]
Conditions | 293.15 K | 313.15 K | 333.15 K | 353.15 K | 373.15 K
100 kPa, Vibrating wire viscometry | 1.491 ± 0.025 | 1.064 ± 0.018 | 0.8013 ± 0.014 | 0.6281 ± 0.011 | 0.5055 ± 0.0096
1000 kPa, Vibrating wire viscometry | 1.507 ± 0.025 | 1.074 ± 0.018 | 0.8127 ± 0.014 | 0.6372 ± 0.012 | 0.5149 ± 0.0097
5000 kPa, Falling or rolling sphere viscometry | – | 1.135 ± 0.056 | 0.8518 ± 0.042 | 0.6657 ± 0.033 | –
5000 kPa, Vibrating wire viscometry | 1.586 ± 0.027 | 1.124 ± 0.019 | 0.855 ± 0.015 | 0.6713 ± 0.012 | 0.5392 ± 0.01
10000 kPa, Falling or rolling sphere viscometry | – | 1.218 ± 0.061 | 0.903 ± 0.045 | 0.7047 ± 0.035 | –
10000 kPa, Vibrating wire viscometry | 1.672 ± 0.028 | 1.201 ± 0.021 | 0.8975 ± 0.016 | 0.7053 ± 0.013 | 0.5743 ± 0.011
20000 kPa, Falling or rolling sphere viscometry | – | – | 1.002 ± 0.05 | 0.7791 ± 0.039 | –
20000 kPa, Vibrating wire viscometry | 1.877 ± 0.031 | 1.324 ± 0.023 | 1.001 ± 0.017 | 0.7819 ± 0.014 | 0.6286 ± 0.011
30000 kPa, Falling or rolling sphere viscometry | – | – | 1.112 ± 0.055 | 0.8651 ± 0.043 | –
30000 kPa, Vibrating wire viscometry | 2.084 ± 0.035 | 1.476 ± 0.025 | 1.095 ± 0.019 | 0.8694 ± 0.015 | 0.7003 ± 0.013
40000 kPa, Falling or rolling sphere viscometry | – | – | 1.223 ± 0.061 | 0.9597 ± 0.048 | –
40000 kPa, Vibrating wire viscometry | 2.31 ± 0.038 | 1.625 ± 0.027 | 1.216 ± 0.021 | 0.9528 ± 0.017 | 0.7715 ± 0.014
50000 kPa, Vibrating wire viscometry | 2.56 ± 0.042 | 1.778 ± 0.03 | 1.321 ± 0.023 | 1.037 ± 0.018 | 0.8425 ± 0.015
60000 kPa, Falling or rolling sphere viscometry | – | – | – | 1.121 ± 0.056 | –
60000 kPa, Vibrating wire viscometry | 2.822 ± 0.047 | 1.946 ± 0.032 | 1.44 ± 0.024 | 1.123 ± 0.019 | 0.91 ± 0.016
70000 kPa, Vibrating wire viscometry | 3.112 ± 0.051 | 2.129 ± 0.035 | 1.576 ± 0.026 | 1.213 ± 0.021 | 0.9844 ± 0.017
80000 kPa, Vibrating wire viscometry | 3.428 ± 0.056 | 2.32 ± 0.038 | 1.707 ± 0.029 | 1.312 ± 0.022 | 1.066 ± 0.018
100000 kPa, Vibrating wire viscometry | 4.117 ± 0.068 | 2.758 ± 0.046 | 1.994 ± 0.033 | 1.532 ± 0.026 | 1.22 ± 0.021
120000 kPa, Vibrating wire viscometry | 4.953 ± 0.081 | 3.231 ± 0.053 | 2.302 ± 0.038 | 1.757 ± 0.029 | 1.402 ± 0.024
140000 kPa, Vibrating wire viscometry | 5.816 ± 0.095 | 3.755 ± 0.062 | 2.657 ± 0.044 | 2.023 ± 0.034 | 1.588 ± 0.027

From the NIST ThermoML archive (doi:10.1016/j.jct.2015.12.021)
